Reference: US20260015350A1, “AZAQUINAZOLINE PAN-KRAS INHIBITORS” (Mirati Therapeutics, Inc., priority 2022, published 2026)

Legend:
[1] = tested on: KRas-mediated phosphorylation of ERK in PSN1 cells; test: Inhibition of KRas-mediated phosphorylation of ERK (Cisbio HTRF pERK), PSN1 cells; type: cell-based; conditions: Homo sapiens
Method in brief: (§1)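 Overnight culture at 37° C./5% CO2 in RPMI containing 10% FBS, seeded 6,000 cells per well, preceded the assay. A covered 4-hour incubation at room temperature followed, then HTRF signal for phosphorylated ERK was measured.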

[2] = tested on: KRas-mediated phosphorylation of ERK in H460 cells; test: Inhibition of KRas-mediated phosphorylation of ERK (Cisbio HTRF pERK), H460 cells; type: cell-based; conditions: Homo sapiens; for inhibition at 0.1 µM: NCI-H460, 3 h, single point, 100 nM compound, 3 hrs; for IC50: NCI-H460, HTRF pERK
Method in brief: (§2)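 HTRF readout of phospho-ERK in cell lysates after 3 hrs of compound exposure. Dosing: 10 uM top, 3-fold steps, 10 doses, final DMSO 0.8%. Min control: 0.2 uM Trametinib. Lysis ran 40 mins at 4° C, and antibody detection 2 hrs at room temperature.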

[3] = tested on: KRas-mediated phosphorylation of ERK in AsPC-1 cells; test: Inhibition of KRas-mediated phosphorylation of ERK (Cisbio HTRF pERK), AsPC-1 cells; type: cell-based; conditions: Homo sapiens; for inhibition at 0.1 µM: ASPC1, 3 h, single point, 100 nM compound, 3 hrs, AsPC-1 cells; for IC50: ASPC1, AsPC-1 cells, HTRF pERK
Method in brief: as §2

[4] = tested on: KRas-mediated phosphorylation of ERK in HCT116 cells; test: Inhibition of KRas-mediated phosphorylation of ERK (Cisbio HTRF pERK), HCT116 cells; type: cell-based; conditions: Homo sapiens; for inhibition at 0.1 µM: HCT-116, 3 h, single point, 100 nM compound, 3 hrs; for IC50: HCT-116, HTRF pERK
Method in brief: (§3)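 Signal read by HTRF (d2/Cryptate antibody pair, 2 hr room-temperature incubation on lysate). Cells: 6,000 per well, 3 hr compound exposure. Titration: 10 uM highest, 3-fold, 10 points.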

[5] = tested on: KRas-mediated phosphorylation of ERK in H727 cells; test: Inhibition of KRas-mediated phosphorylation of ERK (Cisbio HTRF pERK), H727 cells; type: cell-based; conditions: Homo sapiens; for inhibition at 0.1 µM: NCI-H727, 3 h, single point, 100 nM compound, 3 hrs, H727 cells; for IC50: NCI-H727, H727 cells, HTRF pERK
Method in brief: as §2

KRas^G12R = molecular target: T1, KRas^G12R (Homo sapiens, UniProt P01116, G12R); test: KRas binding assay (TR-FRET tracer displacement), KRas G12R
T1 construct: Biotinylated KRas (corresponding to amino acids 1-169, produced at Accelegan Inc.); biotin (biotinylated); purchased Accelegan Inc

[6] = tested on: KRas-mediated phosphorylation of ERK in A549 cells; test: Inhibition of KRas-mediated phosphorylation of ERK (Cisbio HTRF pERK), A549 cells; type: cell-based; conditions: Homo sapiens; for inhibition at 0.1 µM: A549, 3 h, single point, 100 nM compound, 3 hrs; for IC50: HTRF pERK
Method in brief: as §3

KRas^G12V = molecular target: T2, KRas^G12V (Homo sapiens, UniProt P01116, G12V); test: KRas binding assay (TR-FRET tracer displacement), KRas G12V
T2 construct: Biotinylated KRas (corresponding to amino acids 1-169, produced at Accelegan Inc.); biotin (biotinylated); purchased Accelegan Inc

KRas^G12D = molecular target: T3, KRas^G12D (Homo sapiens, UniProt P01116, G12D); test: KRas binding assay (TR-FRET tracer displacement), KRas G12D
T3 construct: Biotinylated KRas (corresponding to amino acids 1-169, produced at Accelegan Inc.); biotin (biotinylated); purchased Accelegan Inc

[7] = tested on: KRas-mediated phosphorylation of ERK in H358 cells; test: Inhibition of KRas-mediated phosphorylation of ERK (Cisbio HTRF pERK), H358 cells; type: cell-based; conditions: Homo sapiens; for inhibition at 0.1 µM: NCI-H358, 3 h, single point, 100 nM compound, 3 hrs; for IC50: NCI-H358, HTRF pERK
Method in brief: as §2

[8] = tested on: KRas-mediated phosphorylation of ERK in MKN1 cells; test: Inhibition of KRas-mediated phosphorylation of ERK (Cisbio HTRF pERK), MKN1 cells; type: cell-based; conditions: Homo sapiens, MKN-1
Method in brief: as §1

T3 sequence (P01116 1-169 isoform P01116-2 G12D): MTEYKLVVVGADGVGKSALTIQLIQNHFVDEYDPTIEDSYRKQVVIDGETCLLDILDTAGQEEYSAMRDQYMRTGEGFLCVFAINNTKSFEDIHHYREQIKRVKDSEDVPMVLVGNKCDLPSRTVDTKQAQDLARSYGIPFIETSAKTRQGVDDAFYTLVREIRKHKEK
T1 sequence (P01116 1-169 isoform P01116-2 G12R): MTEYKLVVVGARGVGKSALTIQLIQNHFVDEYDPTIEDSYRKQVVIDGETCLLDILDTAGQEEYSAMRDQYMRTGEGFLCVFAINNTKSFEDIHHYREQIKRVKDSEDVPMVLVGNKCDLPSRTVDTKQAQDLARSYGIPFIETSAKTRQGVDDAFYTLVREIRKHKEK
T2 sequence (P01116 1-169 isoform P01116-2 G12V): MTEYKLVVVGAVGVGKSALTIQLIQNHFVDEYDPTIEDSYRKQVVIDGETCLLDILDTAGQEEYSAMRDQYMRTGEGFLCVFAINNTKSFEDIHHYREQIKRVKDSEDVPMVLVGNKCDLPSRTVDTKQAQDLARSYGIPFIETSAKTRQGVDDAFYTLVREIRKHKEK

| SMILES | IC50 [1] [nM] | inhibition at 0.1 µM [2] [%] | inhibition at 0.1 µM [3] [%] | IC50 [3] [nM] | inhibition at 0.1 µM [4] [%] | inhibition at 0.1 µM [5] [%] | IC50 [5] [nM] | IC50 (KRas^G12R) [nM] | inhibition at 0.1 µM [6] [%] | IC50 (KRas^G12V) [nM] | IC50 (KRas^G12D) [nM] | inhibition at 0.1 µM [7] [%] | IC50 [8] [nM] | IC50 [2] [nM] | IC50 [4] [nM] | IC50 [6] [nM] | IC50 [7] [nM] |
| --- | --- | --- | --- | --- | --- | --- | --- | --- | --- | --- | --- | --- | --- | --- | --- | --- | --- |
| CCc1c(F)ccc2cc(O)cc(-c3ncc4c(N5CCC[C@@](C)(O)C5)nc(OCC5(CN(C)C)CC56CC6)nc4c3F)c12 (stereo partly drawn) [Example 783, (3R)-1-(2-((1-((dimethylamino)methyl)spiro[2.2]pentan-1-yl)methoxy)-7-(8-ethyl-7-fluoro-3-hydroxynaphthalen-1-yl)-8-fluoropyrido[4,3-d]pyrimidin-4-yl)-3-methylpiperidin-3-ol] | 9780 | 47 | 47 | 52 | 31 | 12 | 187 | 5 | 34 | 2 | 2 | 62 | 19 | – | – | – | – |
| CCc1c(F)ccc2cc(O)cc(-c3ncc4c(N5C[C@H]6CC[C@@H](C5)[C@H]6O)nc(OC[C@@]56CCCN5C[C@H](F)C6)nc4c3F)c12 [Example 848, (1R,5S,8S)-3-(7-(8-ethyl-7-fluoro-3-hydroxynaphthalen-1-yl)-8-fluoro-2-(((2R,7aS)-2-fluorotetrahydro-1H-pyrrolizin-7a(5H)-yl)methoxy)pyrido[4,3-d]pyrimidin-4-yl)-3-azabicyclo[3.2.1]octan-8-ol] | > 10000 | – | – | 2060 | – | – | 896 | 12 | – | 9 | 39 | – | 100 | 275 | 496 | 809 | 310 |
| CCc1c(F)ccc2cc(O)cc(-c3ncc4c(N5CC6CCC(C(=O)N(C)C)(C6)C5)nc(OC[C@@]56CCCN5C[C@H](F)C6)nc4c3F)c12 (stereo partly drawn) [Example 824, 3-(7-(8-ethyl-7-fluoro-3-hydroxynaphthalen-1-yl)-8-fluoro-2-(((2R,7aS)-2-fluorotetrahydro-1H-pyrrolizin-7a(5H)-yl)methoxy)pyrido[4,3-d]pyrimidin-4-yl)-N,N-dimethyl-3-azabicyclo[3.2.1]octane-1-carboxamide] | > 10000 | – | – | 165 | – | – | 174 | 8 | – | 4 | 11 | – | 167 | 136 | 502 | 143 | 69 |
| CCc1c(F)ccc2cc(O)cc(-c3ncc4c(N5CCC[C@@](C)(O)C5)nc(OC[C@]56CCCN5[C@@H](COC)CC6)nc4c3F)c12 [Example 877, (R)-1-(7-(8-ethyl-7-fluoro-3-hydroxynaphthalen-1-yl)-8-fluoro-2-(((3R,7aR)-3-(methoxymethyl)tetrahydro-1H-pyrrolizin-7a(5H)-yl)methoxy)pyrido[4,3-d]pyrimidin-4-yl)-3-methylpiperidin-3-ol] | 2150 | – | – | 79 | – | – | 189 | 5 | – | 3 | 3 | – | 104 | 86 | 176 | 92 | 40 |
| CCc1c(F)ccc2cc(O)cc(-c3ncc4c(N5CC6CCC(COCCO)(C6)C5)nc(OC[C@@]56CCCN5C[C@H](F)C6)nc4c3F)c12 (stereo partly drawn) [Example 840, 5-ethyl-6-fluoro-4-(8-fluoro-2-(((2R,7aS)-2-fluorotetrahydro-1H-pyrrolizin-7a(5H)-yl)methoxy)-4-(1-((2-hydroxyethoxy)methyl)-3-azabicyclo[3.2.1]octan-3-yl)pyrido[4,3-d]pyrimidin-7-yl)naphthalen-2-ol] | > 10000 | – | – | 575 | – | – | 299 | 7 | – | 4 | 9 | – | 38 | 145 | 239 | 422 | 180 |
| CCc1c(F)ccc2cc(O)cc(-c3ncc4c(N5CC6CCC(C5)C6CO)nc(OC[C@@]56CCCN5C[C@H](F)C6)nc4c3F)c12 (stereo partly drawn) [Example 845, 5-ethyl-6-fluoro-4-(8-fluoro-2-(((2R,7aS)-2-fluorotetrahydro-1H-pyrrolizin-7a(5H)-yl)methoxy)-4-((1R,5S,8S)-8-(hydroxymethyl)-3-azabicyclo[3.2.1]octan-3-yl)pyrido[4,3-d]pyrimidin-7-yl)naphthalen-2-ol] | 3460 | – | – | 1570 | – | – | 1150 | 11 | – | 10 | 41 | – | 64 | 80 | 159 | 1190 | 241 |
| CCc1c(F)ccc2cc(O)cc(-c3ncc4c(N5C[C@H]6CC[C@@H](C5)[C@@H]6O)nc(OC[C@@]56CCCN5C[C@H](F)C6)nc4c3F)c12 [Example 842, (1R,5S,8R)-3-(7-(8-ethyl-7-fluoro-3-hydroxynaphthalen-1-yl)-8-fluoro-2-(((2R,7aS)-2-fluorotetrahydro-1H-pyrrolizin-7a(5H)-yl)methoxy)pyrido[4,3-d]pyrimidin-4-yl)-3-azabicyclo[3.2.1]octan-8-ol] | > 10000 | – | – | 479 | – | – | 97 | < 2 | – | < 2 | 5 | – | 1 | 20 | 41 | 56 | 9 |
| CCc1c(F)ccc2cc(O)cc(-c3ncc4c(N5CCC(C#N)CC5)nc(OC[C@@]56CCCN5C[C@H](F)C6)nc4c3F)c12 [Example 544, 1-(7-(8-ethyl-7-fluoro-3-hydroxynaphthalen-1-yl)-8-fluoro-2-(((2R,7aS)-2-fluorohexahydro-1H-pyrrolizin-7a-yl)methoxy)pyrido[4,3-d]pyrimidin-4-yl)piperidine-4-carbonitrile] | > 10000 | 46 | -13 | 455 | 5 | 30 | 79 | 4 | 59 | 3 | 22 | 67 | 25 | – | – | – | – |
| CCc1c(F)ccc2cc(O)cc(-c3ncc4c(N5CC6CCC(C5)C6C)nc(OC[C@@]56CCCN5C[C@H](F)C6)nc4c3F)c12 (stereo partly drawn) [Example 862, 5-ethyl-6-fluoro-4-(8-fluoro-2-(((2R,7aS)-2-fluorohexahydro-1H-pyrrolizin-7a-yl)methoxy)-4-((1R,5S,8S)-8-methyl-3-azabicyclo[3.2.1]octan-3-yl)pyrido[4,3-d]pyrimidin-7-yl)naphthalen-2-ol] | > 10000 | – | – | 6210 | – | – | 3700 | 95 | – | 60 | 311 | – | 196 | 1110 | 2870 | 7210 | 1680 |
| CCc1c(F)ccc2cc(O)cc(-c3ncc4c(N5CC6CCC(C5)C6C(=O)N(C)C)nc(OC[C@@]56CCCN5C[C@H](F)C6)nc4c3F)c12 (stereo partly drawn) [Example 858, (1R,5S,8S)-3-(7-(8-ethyl-7-fluoro-3-hydroxynaphthalen-1-yl)-8-fluoro-2-(((2R,7aS)-2-fluorotetrahydro-1H-pyrrolizin-7a(5H)-yl)methoxy)pyrido[4,3-d]pyrimidin-4-yl)-N,N-dimethyl-3-azabicyclo[3.2.1]octane-8-carboxamide] | > 10000 | – | – | 138 | – | – | 375 | 10 | – | 7 | 6 | – | 3 | 7 | 21 | 19 | 43 |
